Experimental data from patent US6982273B1, “Compositions and methods containing bioavailable Se-methyl-L-selenocysteine for human and veterinary use” (Sami Labs Ltd., priority 2002, dated 2006).

Experiments:
[1] = test system: dimethyl-benz(a)anthracene-induced mammary tumor; settings: 1–2 ppm Se in diet from 1 week before DMBA until sacrifice; order of efficacy: Se-methylselenocysteine > selenite > selenocysteine > dimethyl selenoxide; cited from earlier work
[2] = test system: rats with macrophage associated liver injury and endotoxemia; test: Suppression of macrophage associated liver injury and endotoxemia (P. acnes + LPS) in rats; type: in vivo, rat; settings: Se-methyl-L-selenocysteine 4 mg/kg, composition 2 mg/kg
Experimental: The composition used consisted of Se-methyl-L-selenocysteine of the parent application to which piperine from black pepper fruit was added such that the animals received a co-administered daily dose of 5 mg of piperine.
Study Design: Male Wistar King A rats (200–250 g) were maintained on a basal pelleted diet and water ad libitum under normal temperature and lighting conditions. All rats received an injection of 40 mg/kg body weight of heat killed Propionibacterium acnes (ATCC 11827), 20 mg/ml suspension in saline via the tail vein on day 1. Seven days later they received an intravenous injection of 350 mcg/kg body weight of lipopolysaccharide (LPS, Difco Laboratories, MI, USA), 200 mcg/ml solution in saline). 5 rats received a daily dose of 4 mg/kg body weight of Se-methyl-L-selenocysteine and 5 rats received 2 mg/kg body weight of the composition of the invention, orally for 3 days in the feed, 4 control rats received no supplementation, prior to induction of liver injury, 4 normal controls were not subjected to liver injury. Serum levels of TNF-α were measured. TNF-α is thought to be the principal mediator of the deleterious effects of LPS.

[3] = test system: glutathione peroxidase; settings: selenium-depleted animals; efficiency: Se-methylselenocysteine > dimethyl selenoxide > trimethylselenonium; cited from earlier work

Row | Compound | chemopreventive activity (tumor inhibition) [1] | ability to restore glutathione peroxidase activity [3] | other results
1 | C[Se]C[C@H](N)C(=O)O [Se-methyl-L-selenocysteine] | tumor inhibition | fully replete | Catalase ([2]; oral 3 days): 31.16 ± 3.95 micromole of H2O2 consumed/min; Glutathione (GSH) ([2]; oral 3 days): 7.43 ± 0.69 mcg/mg protein; Glutathione peroxidase ([2]; oral 3 days): 8.13 ± 0.71 micromole of GSH oxidized/min/; Serum Lipid peroxides ([2]; oral 3 days): 2.71 ± 0.32 MDA formed/mg protein; Superoxide dismutase ([2]; oral 3 days): 4.91 ± 0.48 Units/min/mg protein; TNF-alpha (serum) ([2]; oral 3 days): 81 ± 6 ng/mL; Survival rate ([2]; oral in feed 3 days before injury, survivors/n): 3/5
2 | C[Se](C)=O [dimethyl selenoxide] | tumor inhibition | fully replete | –
3 | O=[Se](O)O [selenite] | tumor inhibition | – | –
4 | N[C@@H](C[SeH])C(=O)O [selenocysteine] | tumor inhibition | – | –
5 | C[Se+](C)C [trimethylselenonium] | – | fully replete | –
